{"source": "patent US20230147962A1", "about": "“FIBROBLAST ACTIVATION PROTEIN LIGANDS FOR TARGETED DELIVERY APPLICATIONS” (PHILOCHEM AG, priority 2020, published 2023)", "key": {"hFAP [1]": {"molecular_target": "T1, hFAP (Homo sapiens, UniProt Q12884)", "T1 construct": "made in house; host or cells: CHO cells, transient gene expression, purified from supernatant", "T1 sequence (Q12884 with tags, fused parts or gaps)": "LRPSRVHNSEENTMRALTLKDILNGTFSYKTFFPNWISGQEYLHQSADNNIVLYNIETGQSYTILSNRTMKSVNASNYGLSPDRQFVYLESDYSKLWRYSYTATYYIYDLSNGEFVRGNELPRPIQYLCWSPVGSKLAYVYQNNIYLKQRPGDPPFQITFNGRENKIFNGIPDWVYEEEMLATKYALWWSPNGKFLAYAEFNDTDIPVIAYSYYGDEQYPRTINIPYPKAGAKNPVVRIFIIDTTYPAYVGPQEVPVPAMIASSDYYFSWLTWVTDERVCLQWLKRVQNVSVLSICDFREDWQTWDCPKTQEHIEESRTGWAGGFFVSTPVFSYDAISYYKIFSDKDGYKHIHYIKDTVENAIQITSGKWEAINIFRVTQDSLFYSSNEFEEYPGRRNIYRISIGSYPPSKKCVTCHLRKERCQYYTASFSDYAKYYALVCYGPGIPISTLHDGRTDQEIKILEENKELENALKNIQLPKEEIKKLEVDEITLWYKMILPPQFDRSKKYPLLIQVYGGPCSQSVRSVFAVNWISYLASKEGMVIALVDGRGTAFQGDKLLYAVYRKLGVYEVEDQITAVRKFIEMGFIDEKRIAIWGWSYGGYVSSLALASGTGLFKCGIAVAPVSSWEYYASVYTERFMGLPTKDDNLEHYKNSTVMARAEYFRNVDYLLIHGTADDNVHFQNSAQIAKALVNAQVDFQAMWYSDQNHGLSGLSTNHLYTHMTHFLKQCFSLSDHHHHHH", "test": "Chromatographic co-elution (PD-10) of ligand-protein complexes, hFAP", "assay_type": "binding", "settings": "PD-10 column, hFAP 2 μM", "experimental": "A PD-10 column was pre-equilibrated with assay buffer (50 mM Tris, 100 mM NaCl, 1 mM EDTA, pH=7.4) prior to the loading of the complex. Human FAP (2 μM) and fluorescein-labeled binders (6 μM) were incubated for 30 min at 37° C. in the dark. The mixture was loaded and the column was flushed using the assay buffer. The flow through was collected in 96-well plates and the fluorescence was measured immediately on a TECAN microtiter plate reader, monitoring the fluorescence at an excitation wavelength of 485 nm and an emission wavelength of 535 nm. The protein quantities were estimated by measuring the absorbance at 280 nm using a Nanodrop 2000/2000c spectrophotometer.\nA PD-10 column was pre-equilibrated with assay buffer (50 mM Tris, 100 mM NaCl, 1 mM EDTA, pH=7.4) prior to the loading of the complex. A mixture of different proteins (hFAP=2 μM, mFAP=5 μM) and conjugate 15 (100 nM) were incubated and loaded on the column. The mixture was flushed using the assay buffer. The flow through was collected in 96-well plates and the fluorescence intensity was measured immediately on a TECAN microtiter plate reader, monitoring the fluorescence at an excitation wavelength of 485 nm and an emission wavelength of 535 nm. The concentration of the proteins was estimated by measuring the absorbance at 280 nm using a Nanodrop 2000/2000c spectrophotometer."}, "HT-1080.hFAP": {"test_system": "HT-1080.hFAP", "test": "Confocal microscopy on HT-1080.hFAP", "assay_type": "cell-based", "settings": "t=0 and 1 h", "experimental": "(§1) HT-1080.hFAP and HT-1080 cells were seeded into 4-well cover slip chamber plates at a density of 10^4 cells per well in DMEM medium (1 mL) supplemented with 10% FCS, AA and HEPES (10 mM) and allowed to grow for 24 hours under standard culture conditions. Hoechst 33342 nuclear dye was used to stain nuclear structures.\n(§2) The culture medium was replaced with fresh medium containing conjugate 15 (100 nM). Randomly selected colonies imaged on a SP8 confocal microscope equipped with an AOBS device (Leica Microsystems)."}, "hFAP [2]": {"molecular_target": "T1, hFAP", "test": "Affinity measurement to human FAP by fluorescence polarization", "assay_type": "binding", "settings": "binder 10 nM, read-out: KD to hFAP", "experimental": "Fluorescence polarization measurements were performed in 384-well plates (non-binding, ps, f-bottom, black, high volume, 30 μL final volume). A stock solution of human FAP (4 μM) was serially diluted with buffer (50 mM Tris, 100 mM NaCl, 1 mM EDTA, pH=7.4), while the final concentration of the binders was kept constant at 10 nM. The measurements were carried out after incubating for 30 min at 37° C. in the dark by fluorescent polarization (FIG. 4).\nFluorescence polarization experiments were performed in 384-well plates (non-binding, ps, f-bottom, black, high volume, 30 μL final volume). Stock solutions of human FAP (4 μM) and murine FAP (5 μM) were serially diluted with buffer (50 mM Tris, 100 mM NaCl, 1 mM EDTA, pH=7.4), while the final concentration of the binders was kept constant at 10 nM. The fluorescence anisotropy was measured on a TECAN microtiter plate reader. Experiments were performed in triplicate and the mean anisotropy values fitted using Prism 7."}, "HT-1080 Wild type": {"test_system": "HT-1080 Wild type", "test": "Confocal microscopy on HT-1080 wild type", "assay_type": "cell-based", "settings": "negative control cells", "experimental": "as §1, §2"}}, "note": "*1 amine or outer side, *2 acyl side, *3 side chain or, on linkers, in order; H or OH if unused. Where a SMILES comes first, the peptide text is derived from it. The star is where a group is joined. Fluorescein(5-Mal) = O=C1OC2(c3ccc(O)cc3Oc3cc(O)ccc32)c2ccc(N3C(=O)CC(*)C3=O)cc21; X1 = N#C[C@@H]1CC(F)(F)CN1C(=O)CNC(=O)c1ccnc2c(N*)cccc12; Suc = O=C(CCC(=O)[*:2])[*:1]"}
{"smiles": "N#C[C@@H]1CC(F)(F)CN1C(=O)CNC(=O)c1ccnc2c(NC(=O)CCC(=O)N[C@@H](CC(=O)O)C(=O)N[C@@H](CCCCN)C(=O)N[C@@H](CC(=O)O)C(=O)N[C@@H](CSC3CC(=O)N(c4ccc5c(c4)C(=O)OC54c5ccc(O)cc5Oc5cc(O)ccc54)C3=O)C(=O)O)cccc12", "note": "(stereo partly drawn) [Conjugate 15, (2R,5S,8S,11S)-8-(4-aminobutyl)-5,11-bis(carboxymethyl)-16-((4-((2-((S)-2-cyano-4,4-difluoropyrrolidin-1-yl)-2-oxoethyl)carbamoyl)quinolin-8-yl)amino)-2-(((1-(3′,6′-dihydroxy-3-oxo-3H-spiro[isobenzofuran-1,9′-xanthen]-5-yl)-2,5-dioxopyrrolidin-3-yl)thio)methyl)-4,7,10,13,16-pentaoxo-3,6,9,12-tetraazahexadecanoic acid] ({X1-Suc}-DKDC(Fluorescein(5-Mal))-OH)", "values": [{"measurement": "complex formation with hFAP in PD-10 co-elution", "setting": "hFAP [1]", "result": "stable complex is formed"}, {"measurement": "accumulation on HT-1080.hFAP cells", "setting": "HT-1080.hFAP", "result": "accumulation of conjugate 15 on the cell membrane and inside the cytosol"}, {"measurement": "Kd", "setting": "hFAP [2]", "result": 0.68, "unit": "nM"}, {"measurement": "accumulation on HT-1080 Wild type cells", "setting": "HT-1080 Wild type", "result": "no accumulation on the cell membrane and in the cytosol"}]}
